Measured values from patent US7700108B2, “Tumor antigen protein and use thereof” (Dainippon Sumitomo Pharma Co., Ltd., priority 2002, dated 2010).
Where no end group is shown, it is not given here.

Test system: TcOS2000cl-303 (CTL) with 293-EBNA-B55 cells (HLA-B* 5502)
Assay: LDH release assay: reactivity of CTL TcOS2000cl-303 to peptide-pulsed 293-EBNA-B55 cells
Format: cell-based, human
Settings: 293-EBNA-B55 cells pulsed for 1 hour with peptide, co-cultured with TcOS2000cl-303; FIG. 5
Procedure: The first screening involved the following procedures. A pool of about 100 cDNA clones ([…]) was introduced into 293-EBNA-B55 cells having been plated into a 96-well microplate at 8×10^4 cells/well by lipofection method (Lipofectamine 2000, Invitrogen). Pools of respective cDNA clones used for introduction were stored separately. Twenty-four-hour later, TcOS2000cl-303 cells (8×10^4) were added and cultivation continued for another 24 hours, when the cultured supernatant was recovered. The reactivity of CTL was evaluated by determining LDH released in the supernatant by cytotoxic effects using LDH Cytotoxicity Detection Kit (TAKARA BIO). […] As a result, the reactivity was detected in 20 wells. […] As a result, the reactivity was detected in 4 wells.
Antigen peptide regions that bind to HLA-B* 5502 was identified from various peptides synthesized on the basis of the amino acid sequence (SEQ ID NO: 2) of tumor antigen protein PBF using as an index the reactivity of TcOS2000cl-303. 293-EBNA-B55A cells (8×10^4) were pulsed for 1 hour with a peptide having an amino acid sequence (Cys Thr Ala Cys Arg Trp Lys Ala Cys Gln Arg, SEQ ID NO: 46) corresponding to the amino acid sequence at position […] of SEQ ID NO: 2, co-cultured with TcOS2000cl-303 cells (4×10^4) and the reactivity was assessed by LDH release assay in the same manner as that described in Example 2. […]

Sequence: CTACRWKACQR (cysteine pairing not given here) [SEQ ID NO: 46]
- reactivity of TcOS2000cl-303 (LDH release): reacted to peptide-pulsed 293-EBNA-B55 cells
